Measured values: ChEMBL document CHEMBL3580640, “Design, Synthesis, and Structure-Activity Relationships of Pyridine-Based Rho Kinase (ROCK) Inhibitors” (J Med Chem, 2015)

Columns and labels:
Assay type in all cases: ADME, organism-based
Conditions in all cases: in vivo
[1] = tested on: Rattus norvegicus; test: Clearance in iv dosed rat
[2] = AUC in iv dosed rat
[3] = AUC in po dosed rat
[4] = Cmax in po dosed rat; parameters: route oral
[5] = tested on: Rattus norvegicus; test: Half life in iv dosed rat
[6] = Oral bioavailability in rat
[7] = Half life in po dosed rat
[8] = tested on: Rattus norvegicus; test: Volume of distribution at steady state in iv dosed rat
[9] = Cmax in iv dosed rat; parameters: route intravenous
[10] = Tmax in po dosed rat

CS(=O)(=O)Nc1cccc(CC(=O)Nc2cc(-c3ccnc(F)c3)cs2)c1
clearance [1]: 3.45 mL/min/kg
AUC [2]: 4310 ng·h/mL
AUC [3]: 32600 ng·h/mL
Cmax [4]: 3200 ng/mL
t1/2 [5]: 2.6 h
bioavailability [6]: 69%
half-life [7]: 3.4 h
Vdss [8]: 0.675 L/kg
Cmax [9]: 2920 ng/mL
Tmax [10]: 3 h
